Test results: patent publication US20160250213A1, “FORMULATIONS OF AZAINDOLE COMPOUNDS” (priority 2013, published 2016)
Counter-ions that a name gives are not always drawn. Like-named read-outs stand apart in the source and are kept apart here.

Columns and labels:
[1] = Hydrate formation of free base versus humidity / water activity; format: physicochemical; details: ambient temperature
physchem = details: water, thermodynamic from solid
[2] = Water activity tests: competition slurry in IPA/water mixtures; format: physicochemical
[3] = solvent 1,4-Dioxane, ambient temperature
[4] = solvent 1-Pentanol, ambient temperature
[5] = solvent 1-Propanol, ambient temperature
[6] = solvent 2-Butanol, ambient temperature
[7] = solvent 2-Ethoxyethanol, ambient temperature
[8] = solvent 2-Methoxyethanol, ambient temperature
[9] = solvent 2-Propanol, ambient temperature
[10] = solvent Acetone, ambient temperature
[11] = solvent Cyclohexane, ambient temperature
[12] = solvent Dimethylsulfoxide, ambient temperature
[13] = solvent Ethanol, ambient temperature
[14] = solvent Ethylene glycol, ambient temperature
[15] = solvent Formic acid, ambient temperature
[16] = solvent Hexane, ambient temperature
[17] = solvent Methanol, ambient temperature
[18] = solvent Methyl acetate, ambient temperature
[19] = solvent Methyl tetrahydrofuran, ambient temperature
[20] = solvent Methylcyclohexane, ambient temperature
[21] = solvent Methylethyl ketone, ambient temperature
[22] = solvent N,N-Dimethylacetamide, ambient temperature
[23] = solvent N,N-Dimethylformamide, ambient temperature
[24] = solvent Tetrahydrofuran, ambient temperature
[25] = solvent Tetralin, ambient temperature
[26] = solvent t-Butylmethylether, ambient temperature
[27] = solvent xylene, ambient temperature
[28] = solvent Acetonitrile, ambient temperature, listed as Form A HCl salt of Compound (1)
[29] = solvent Chloroform, ambient temperature, listed as Form A HCl salt of Compound (1)
[30] = solvent Dimethylsulfoxide, ambient temperature, listed as Form A HCl salt of Compound (1)
[31] = solvent Formic acid, ambient temperature, listed as Form A HCl salt of Compound (1)

O=C(O)[C@H]1C2CCC(CC2)C1Nc1nc(-c2c[nH]c3ncc(F)cc23)ncc1F (stereo partly shown) [Form A free base Compound (1)]
water activity where the hydrate form was observed [1]: greater than 0.6
Sol. (solvent 1,1,2-Trichloroethane, ambient temperature): 1.0 mg/mL
Sol. (solvent 1,2-Dichloroethane, ambient temperature): 0.4 mg/mL
Sol. (solvent 1,2-Dimethoxyethane, ambient temperature): 114.0 mg/mL
Resulting Form [3]: Solvate (1:1)
Sol. [3]: 21.3 mg/mL
Sol. (solvent 1-Butanol, ambient temperature): 21.0 mg/mL
Resulting Form [4]: No signal
Sol. [4]: 14.5 mg/mL
Resulting Form [5]: Solvate
Sol. [5]: 15.9 mg/mL
Resulting Form [6]: Solvate (1:1)
Sol. [6]: 14.0 mg/mL
Resulting Form [7]: Amorphous
Sol. [7]: >113 mg/mL
Resulting Form [8]: Amorphous
Sol. [8]: >114 mg/mL
Sol. (solvent 2-Methy-1-propanol, ambient temperature): 12.2 mg/mL
Resulting Form [9]: Solvate(1:1)
Sol. [9]: 12.9 mg/mL
Sol. (solvent 3-Methyl-1-butanol, ambient temperature): 9.7 mg/mL
Resulting Form [10]: Solvate
Sol. [10]: 16.3 mg/mL
Sol. (solvent Acetonitrile, ambient temperature): 1.0 mg/mL
Sol. (solvent Anisole, ambient temperature): 0.7 mg/mL
Sol. (solvent Butyl acetate, ambient temperature): 8.1 mg/mL
Sol. (solvent Chlorobenzene, ambient temperature): 0.4 mg/mL
Sol. (solvent Chloroform, ambient temperature): 3.8 mg/mL
Sol. (solvent Cumene, ambient temperature): 0.3 mg/mL
Sol. [11]: <0.1 mg/mL
Sol. (solvent Dichloromethane, ambient temperature): 0.9 mg/mL
Resulting Form [12]: No signal
Sol. [12]: >113 mg/mL
Resulting Form [13]: No signal
Sol. [13]: 35.5 mg/mL
Sol. (solvent Ethyl acetate, ambient temperature): 11.6 mg/mL
Sol. (solvent Ethyl ether, ambient temperature): 3.5 mg/mL
Sol. (solvent Ethyl formate, ambient temperature): 8.1 mg/mL
Sol. [14]: 10.4 mg/mL
Sol. (solvent Formamide, ambient temperature): 7.0 mg/mL
Resulting Form [15]: Amorphous
Sol. [15]: >89.4 mg/mL
Sol. (solvent Heptane, ambient temperature): <1.5 mg/mL
Sol. [16]: <0.1 mg/mL
Sol. (solvent Isobutyl acetate, ambient temperature): 4.4 mg/mL
Sol. (solvent Isopropyl acetate, ambient temperature): 6.2 mg/mL
Resulting Form [17]: Solvate
Sol. [17]: 25.5 mg/mL
Resulting Form [18]: Solvate
Sol. [18]: 9.4 mg/mL
Resulting Form [19]: Solvate(1:1)
Sol. [19]: 34.8 mg/mL
Sol. (solvent Methylbutyl ketone, ambient temperature): 20.0 mg/mL
Sol. [20]: <0.1 mg/mL
Resulting Form [21]: Amorphous
Sol. [21]: 27.3 mg/mL
Resulting Form [22]: Solvate
Sol. [22]: >150 mg/mL
Resulting Form [23]: Solvate
Sol. [23]: 39.2 mg/mL
Sol. (solvent N-Methylpyrrolidinone, ambient temperature): >149 mg/mL
Sol. (solvent Nitromethane, ambient temperature): 0.3 mg/mL
Sol. (solvent Pentane, ambient temperature): <0.3 mg/mL
Sol. (solvent Propyl acetate, ambient temperature): 7.5 mg/mL
Resulting Form [24]: Solvate(1:1)
Sol. [24]: 61.2 mg/mL
Sol. [25]: <0.1 mg/mL
Sol. (solvent Toluene, ambient temperature): 0.3 mg/mL
Resulting Form (solvent Water-IPA 1:1, ambient temperature): Solvate
Resulting Form (solvent Water-MeOH 1:1, ambient temperature): Solvate
Resulting Form (solvent Water-MeOH 1:3, ambient temperature): Solvate
Sol. (solvent acetic acid, ambient temperature): 42.8 mg/mL
stability in solvent systems (solvent systems listed in b344 (acetonitrile to water-acetonitrile)): stable
Resulting Form [26]: Amorphous
Sol. [26]: 10.4 mg/mL
Resulting Form [27]: Solvate
Sol. [27]: 0.3 mg/mL
solubility thermodynamic at 2 weeks (physchem): < 100 µg/mL

O=C(O)[C@H]1C2CCC(CC2)C1Nc1nc(-c2c[nH]c3ncc(F)cc23)ncc1F (stereo partly shown) [Form A of HCl salt of Compound (1).½H2O]
form conversion in competition slurry [2]: converted to Form F
Sol. (solvent 1,1,2-Trichloroethane, ambient temperature, listed as Form A HCl salt of Compound (1)): <0.1 mg/mL
Sol. (solvent 1,2-Dichloroethane, ambient temperature, listed as Form A HCl salt of Compound (1)): 1.7 mg/mL
Sol. (solvent 1,2-Dimethoxyethane, ambient temperature, listed as Form A HCl salt of Compound (1)): 0.5 mg/mL
Sol. (solvent 1,4-Dioxane, ambient temperature, listed as Form A HCl salt of Compound (1)): 0.4 mg/mL
Sol. (solvent 1-Butanol, ambient temperature, listed as Form A HCl salt of Compound (1)): 2.9 mg/mL
Sol. (solvent 1-Pentanol, ambient temperature, listed as Form A HCl salt of Compound (1)): 3.3 mg/mL
Sol. (solvent 1-Propanol, ambient temperature, listed as Form A HCl salt of Compound (1)): 10.7 mg/mL
Sol. (solvent 2-Butanol, ambient temperature, listed as Form A HCl salt of Compound (1)): 2.9 mg/mL
Sol. (solvent 2-Methoxyethanol, ambient temperature, listed as Form A HCl salt of Compound (1)): 34.1 mg/mL
Sol. (solvent 2-Methy-1-propanol, ambient temperature, listed as Form A HCl salt of Compound (1)): 3.5 mg/mL
Sol. (solvent 2-Propanol, ambient temperature, listed as Form A HCl salt of Compound (1)): 3.3 mg/mL
Sol. (solvent 3-Methyl-1-butanol, ambient temperature, listed as Form A HCl salt of Compound (1)): 3.2 mg/mL
Sol. (solvent Acetone, ambient temperature, listed as Form A HCl salt of Compound (1)): 1.5 mg/mL
Resulting Form [28]: Solvate
Sol. [28]: 0.5 mg/mL
Sol. (solvent Anisole, ambient temperature, listed as Form A HCl salt of Compound (1)): <0.1 mg/mL
Sol. (solvent Butyl acetate, ambient temperature, listed as Form A HCl salt of Compound (1)): 0.2 mg/mL
Sol. (solvent Chlorobenzene, ambient temperature, listed as Form A HCl salt of Compound (1)): <0.1 mg/mL
Resulting Form [29]: Solvate
Sol. [29]: <0.1 mg/mL
Sol. (solvent Cumene, ambient temperature, listed as Form A HCl salt of Compound (1)): <0.1 mg/mL
Sol. [11]: <0.1 mg/mL
Sol. (solvent Dichloromethane, ambient temperature, listed as Form A HCl salt of Compound (1)): 0.1 mg/mL
Resulting Form [30]: Solvate
Sol. [30]: 346.5 mg/mL
Sol. (solvent Ethanol, ambient temperature, listed as Form A HCl salt of Compound (1)): 19.9 mg/mL
Sol. (solvent Ethyl acetate, ambient temperature, listed as Form A HCl salt of Compound (1)): 0.2 mg/mL
Sol. (solvent Ethyl ether, ambient temperature, listed as Form A HCl salt of Compound (1)): 0.1 mg/mL
Sol. (solvent Ethyl formate, ambient temperature, listed as Form A HCl salt of Compound (1)): 0.4 mg/mL
Resulting Form [14]: Solvate
Sol. (solvent Ethylene glycol, ambient temperature, listed as Form A HCl salt of Compound (1)): 108.1 mg/mL
Resulting Form [31]: Solvate
Sol. [31]: 214.0 mg/mL
Sol. (solvent Heptane, ambient temperature, listed as Form A HCl salt of Compound (1)): <0.1 mg/mL
Sol. [16]: <0.1 mg/mL
Sol. (solvent Isobutyl acetate, ambient temperature, listed as Form A HCl salt of Compound (1)): 0.2 mg/mL
Sol. (solvent Isopropyl acetate, ambient temperature, listed as Form A HCl salt of Compound (1)): 0.4 mg/mL
Resulting Form [17]: Solvate
Sol. (solvent Methanol, ambient temperature, listed as Form A HCl salt of Compound (1)): 46.4 mg/mL
Sol. (solvent Methyl acetate, ambient temperature, listed as Form A HCl salt of Compound (1)): 0.6 mg/mL
Sol. (solvent Methyl tetrahydrofuran, ambient temperature, listed as Form A HCl salt of Compound (1)): 0.7 mg/mL
Sol. (solvent Methylbutyl ketone, ambient temperature, listed as Form A HCl salt of Compound (1)): 0.4 mg/mL
Sol. [20]: <0.1 mg/mL
Sol. (solvent Methylethyl ketone, ambient temperature, listed as Form A HCl salt of Compound (1)): 0.5 mg/mL
Sol. (solvent Nitromethane, ambient temperature, listed as Form A HCl salt of Compound (1)): <0.1 mg/mL
Sol. (solvent Pentane, ambient temperature, listed as Form A HCl salt of Compound (1)): <0.1 mg/mL
Sol. (solvent Propyl acetate, ambient temperature, listed as Form A HCl salt of Compound (1)): 0.8 mg/mL
Sol. (solvent Tetrahydrofuran, ambient temperature, listed as Form A HCl salt of Compound (1)): 0.7 mg/mL
Sol. [25]: <0.1 mg/mL
Sol. (solvent Toluene, ambient temperature, listed as Form A HCl salt of Compound (1)): <0.1 mg/mL
stability in solvent systems (solvent systems listed in b317 (chlorobenzene to methyl tetrahydrofuran), ambient temperature, 2 weeks): stable
Sol. (solvent t-Butylmethylether, ambient temperature, listed as Form A HCl salt of Compound (1)): 0.4 mg/mL
Sol. (solvent xylene, ambient temperature, listed as Form A HCl salt of Compound (1)): <0.1 mg/mL
solubility thermodynamic (physchem): 600 µg/mL
